Laboratory results as given in patent US6423701B1, “Water soluble amine esters of testosterone for intranasal administration” (University of Kentucky, priority 1996, dated 2002).

Experiment: Nasal absorption of TSDG in rats: plasma levels after intranasal and intravenous administration, HPLC
Assay type: in vivo
Conditions: male, Sprague-Dawley, rat
Experimental: Male Sprague-Dawley rats weighing 250-275 gm were used. Animals were fasted overnight before the experiment, but water was given ad libitum. All surgical procedures were performed under sodium pentobarbital anesthesia (40 mg/kg i.p.). An incision was made in the neck, and the trachea was cannulated with a polyethylene tube. A closed tube was inserted through the esophagus to the posterior part of the nasal cavity. The nasopalatine passage was closed with an adhesive agent to prevent drainage of the drug from the nasal cavity to the mouth.
Blood samples were collected from a cannula inserted into the femoral artery. For intravenous administration, the jugular vein was cannulated for administering the dose.
For intravenous administration, the same dose of the drug was injected through the jugular vein.
Blood samples were collected at 0, 5, 10, 20, 30, 40, 60, 90, 120, 150, and 180 minutes. After immediate centrifugation (3000×g for 3 min), the plasma was separated. The animal was sacrificed after the last sample was obtained, and the samples were then analyzed by HPLC, using the method of Hsyu et al. (Pharm. Res. 11:156-159, 1994). Briefly, plasma concentrations of testosterone free base were determined via a HPLC protocol which included solid-phase extraction, separation on a reverse-phase cyano column, and UV detection at 305 nm.

**Q.** With `C[C@]12CC[C@H]3[C@@H](CCC4=CC(=O)CC[C@@]43C)[C@@H]1CC[C@@H]2O` [TS, 17β-hydroxyandrost-4-en-3-one] as the compound, how does the AUC (inhaled or intranasal, intranasal, dose 25 mg/kg) read?
**A.** 1830 ng·h/mL

**Q.** And the AUC (inhaled or intranasal, intranasal, dose 50 mg/kg)?
**A.** 3490 ng·h/mL

**Q.** What about the AUC (intravenous, dose 25 mg/kg) of the same compound?
**A.** 1770 ng·h/mL

**Q.** What about the AUC (intravenous, dose 50 mg/kg) of the same compound?
**A.** 3780 ng·h/mL
